Legend:
CYP2C9 = target: T1, CYP2C9 (Homo sapiens, UniProt P11712); assay: CYP inhibition in pooled human liver microsomes; format: in vitro ADME
T1 construct: from tissue; host or cells: pooled human liver microsomes

CYP2C19 = target: T2, CYP2C19 (Homo sapiens, UniProt P33261); assay: CYP inhibition in pooled human liver microsomes; format: in vitro ADME
T2 construct: from tissue; host or cells: pooled human liver microsomes

[1] = Mouse brain homogenate binding (in vitro binding study); format: in vitro ADME
Experimental: (§1) Free drug fraction in brain and plasma compartment was determined in vitro (Table 7). Brain to plasma (B/P) ratio was also determined in vivo (Table 8).

[2] = tested on: proteins of MDA-MB-1 cells; assay: Thermal proteome profiling (TPP) for binding proteins
Experimental: To further elucidate targets that activate the above signaling mechanisms, thermal proteome profiling (TPP) was used to identify binding proteins (Franken et al., Nat. Protoc. 10:1567-1593, 2015; Miettinen et al., EMBO J. 37:e98359, 2018) (FIG. 5A). TPP enables an unbiased assessment of the proteins […] bound to VMY-BC-1 on a proteome-wide scale. Cell lysates were made from MDA-MB-1 cells treated with vehicle or 10 μM VMY-BC-1 for 24 hours. Lysates were heated at different temperatures for 3 minutes in a thermal cycler. Equal amounts of protein were digested, labeled with TMT 10-plex and analyzed by mass spectrometry. The fold-changes in protein abundances were computed relative to the lowest temperature in the temperature set. After a normalization, melting curves were fitted to the fold-changes of each individual protein. The thermal stability of proteins affected by VMY-BC-1 treatment was calculated using the differences between melting points from control for each protein. From the 5,634 proteins screened, 10 target proteins were identified that bound VMY-BC-1: LIMK1, ATM, CDLK5, ULK1, WNK1, PP2C, AK1, IKBKAP, Q53E18, and HDAC1 (FIG. 5B).

[3] = Brain pharmacokinetics in mice; format: in vivo
Experimental: Pharmacokinetics of VMY-BC-1 in the brain were assessed in mice administered 25 mg/kg VMY-BC-1 p.o. (Table 6).
as §1

ULK1 = assay: Western blot of autophagy proteins in U87 cells; format: cell-based; conditions: 10 μM, 12-48 hours
Experimental: FIG. 14 is a Western blot of autophagy proteins in U87 GBM cells treated with vehicle (control), VMY-BC-1, or Rapamycin. Western blot is shown for p-ULK1, LC3 A/B, and cleaved PARP.
The effect of VMY-BC-1 on autophagy-related proteins in U87 cells was tested. Protein extracts were made from cells treated with vehicle control, VMY-BC-1 (10 μM), or rapamycin (200 nM) for 12-48 hours.

LogD octanol-water = format: physicochemical; conditions: pH 7.4, read-out: LogD (octanol-water partition coefficient), pH 7.4
Experimental: Moreover, PK studies of RSV in humans conclude that even high concentration of RSV might be insufficient to achieve in vivo concentrations required for the systemic prevention of cancer. Therefore, in vitro ADME assays were carried out to assess VMY-BC-1 and to identify properties for further optimization.

[4] = Normal cell viability, Alamar blue, 72 hours; format: cell-based; conditions: MRCS, normal cell line
Experimental: (§2) The effect of VMY-BC-1 was tested on a panel of GBM cell lines. […] In this study 100 μM was the highest drug concentration used, with 3-fold dilution for a 10 dose response curve.

NHA = assay: Normal cell viability, Alamar blue, 72 hours; format: cell-based; conditions: normal cell line
Experimental: as §2

[5] = Plasma vs tumor PK in MDA-MB-231 xenograft mice; format: in vivo, athymic nude mice
Experimental: FIGS. 10A and 10B are graphs showing plasma (FIG. 10A) and tumor (FIG. 10B) concentrations of VMY-BC-1 in MDA-MB-231 xenograft mice administered 75 mg/kg VMY-BC-1.
At the end of the study, brain and plasma samples were collected for drug concentration. Tumor tissues were collected for immunohistochemistry, Western blot, and bioanalysis. Statistical analysis of tumor growth in the control and treated groups was performed by Student's T test using GraphPad Prism (Ver. 5.03).
The impact of VMY-BC-1 on autophagy proteins in tumor tissue was also investigated. […] Finally, as shown in Table 4 and FIGS. 10A and 10B, VMY-BC-1 had 3-fold higher drug concentration (Cmax) in tumors than in plasma.

CYP2D6 = target: T3, CYP2D6 (Homo sapiens, UniProt P10635); assay: CYP inhibition in pooled human liver microsomes; format: in vitro ADME
T3 construct: from tissue; host or cells: pooled human liver microsomes

[6] = Stability in simulated gastric fluid; format: physicochemical
[7] = 25 mg/kg single dose P.O., 0.00 h
[8] = 25 mg/kg single dose P.O., 12.00 h
[9] = 25 mg/kg single dose P.O., 24.00 h
[10] = athymic nude, mouse, Plasma, oral 75 mg/kg
[11] = athymic nude, mouse, Tumor, oral 75 mg/kg

T2 sequence (P33261 whole entry): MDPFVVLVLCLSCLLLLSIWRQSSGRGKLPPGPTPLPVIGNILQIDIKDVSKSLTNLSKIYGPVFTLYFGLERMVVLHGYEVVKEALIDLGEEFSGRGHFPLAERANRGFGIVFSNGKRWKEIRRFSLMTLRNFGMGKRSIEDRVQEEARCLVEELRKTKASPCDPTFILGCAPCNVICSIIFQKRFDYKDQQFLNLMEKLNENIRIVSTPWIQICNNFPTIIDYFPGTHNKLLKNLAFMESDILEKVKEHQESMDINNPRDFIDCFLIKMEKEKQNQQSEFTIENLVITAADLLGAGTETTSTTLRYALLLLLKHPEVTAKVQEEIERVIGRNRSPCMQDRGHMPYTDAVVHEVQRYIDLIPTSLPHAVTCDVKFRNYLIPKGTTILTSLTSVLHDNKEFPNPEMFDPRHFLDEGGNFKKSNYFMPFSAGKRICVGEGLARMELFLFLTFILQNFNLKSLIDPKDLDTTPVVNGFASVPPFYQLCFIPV
T1 sequence (P11712 whole entry): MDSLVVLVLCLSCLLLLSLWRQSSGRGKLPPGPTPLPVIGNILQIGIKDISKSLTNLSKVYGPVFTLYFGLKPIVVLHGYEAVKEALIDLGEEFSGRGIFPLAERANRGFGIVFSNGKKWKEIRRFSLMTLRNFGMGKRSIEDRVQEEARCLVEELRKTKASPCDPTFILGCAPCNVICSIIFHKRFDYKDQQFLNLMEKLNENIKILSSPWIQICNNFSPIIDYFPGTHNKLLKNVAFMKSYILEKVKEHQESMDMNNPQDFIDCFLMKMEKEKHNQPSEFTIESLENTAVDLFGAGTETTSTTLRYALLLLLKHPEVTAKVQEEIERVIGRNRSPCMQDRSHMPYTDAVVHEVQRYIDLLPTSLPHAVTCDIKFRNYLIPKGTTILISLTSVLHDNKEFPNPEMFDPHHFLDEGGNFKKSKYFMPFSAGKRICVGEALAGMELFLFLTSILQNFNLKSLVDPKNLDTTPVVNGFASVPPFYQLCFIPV
T3 sequence (P10635 whole entry): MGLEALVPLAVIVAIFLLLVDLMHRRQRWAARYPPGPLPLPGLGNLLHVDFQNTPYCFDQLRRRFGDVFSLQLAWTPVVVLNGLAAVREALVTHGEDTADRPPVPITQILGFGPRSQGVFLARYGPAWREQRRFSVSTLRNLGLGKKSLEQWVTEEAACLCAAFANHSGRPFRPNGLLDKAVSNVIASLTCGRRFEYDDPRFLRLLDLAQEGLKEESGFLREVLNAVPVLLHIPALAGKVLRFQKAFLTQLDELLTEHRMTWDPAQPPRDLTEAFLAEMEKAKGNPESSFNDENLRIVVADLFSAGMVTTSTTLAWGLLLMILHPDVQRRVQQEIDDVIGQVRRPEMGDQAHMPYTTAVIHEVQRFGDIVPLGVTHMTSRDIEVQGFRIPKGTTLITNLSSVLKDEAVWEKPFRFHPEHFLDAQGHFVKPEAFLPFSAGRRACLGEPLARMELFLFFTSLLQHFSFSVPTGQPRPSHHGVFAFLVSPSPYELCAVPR

COc1ccc(/C=C/c2cc(OC)cc(B(O)O)c2)cc1 [VMY-BC-1]
IC50 (CYP2C9): 78.4 µM | IC50 (CYP2C19): 95.7 µM | Bound (%) ([1]; Mouse Brain Homogenate): 30.08% | fraction unbound ([1]; Mouse Brain Homogenate): 0.699 | recovery ([1]; mouse, mouse brain homogenate): 108% | Target proteins identified that bound VMY-BC-1 ([2]; 10 μM, 24 hours, 5,634 proteins screened): 10 | Fraction of bound protein ([2]; of 5,634 proteins screened): 0.0017 fraction | Mean Brain Concentration [3, 7]: 0 ng/g | Mean Plasma Concentration [3, 7]: 0 ng/mL | Mean Brain Concentration ([3]; 25 mg/kg single dose P.O., 0.50 h, in ng/g): 40017.53 | Mean Plasma Concentration ([3]; 25 mg/kg single dose P.O., 0.50 h, in ng/mL): 5273.66 | Mean Brain Concentration ([3]; 25 mg/kg single dose P.O., 1.00 h, in ng/g): 28802.80 | Mean Plasma Concentration ([3]; 25 mg/kg single dose P.O., 1.00 h, in ng/mL): 5486.04 | Mean Brain Concentration ([3]; 25 mg/kg single dose P.O., 3.00 h, in ng/g): 6158.13 | Mean Plasma Concentration ([3]; 25 mg/kg single dose P.O., 3.00 h, in ng/mL): 1945.44 | Mean Brain Concentration ([3]; 25 mg/kg single dose P.O., 6.00 h, in ng/g): 1948.79 | Mean Plasma Concentration ([3]; 25 mg/kg single dose P.O., 6.00 h, in ng/mL): 889.87 | Mean Brain Concentration [3, 8]: 0 ng/g | Mean Plasma Concentration [3, 8]: 0 ng/mL | Mean Brain Concentration [3, 9]: 0 ng/g | Mean Plasma Concentration [3, 9]: 0 ng/mL | AUCextrap ([3]; Brain, oral 25 mg/kg): 4.74% | AUCinf ([3]; Brain, oral 25 mg/kg): 78032.82 ng·h/g | AUClast ([3]; Brain, oral 25 mg/kg): 74330.76 ng·h/g | AUCextrap ([3]; Plasma, oral 25 mg/kg): 13.75% | Kp at 0 h ([3]; mouse, brain and plasma, oral, 25 mg/kg single dose P.O., 0.00 h, read-out: Brain to Plasma Ratio): 0 | Kp at 12 h ([3]; mouse, brain and plasma, oral, 25 mg/kg single dose P.O., 12.00 h, read-out: Brain to Plasma Ratio): 0 | Kp at 24 h ([3]; mouse, brain and plasma, oral, 25 mg/kg single dose P.O., 24.00 h, read-out: Brain to Plasma Ratio): 0 | Kp ([3]; mouse, brain and plasma, po, 25 mg/kg p.o., read-out: Cmax relative to plasma): 7 | Kp at 0.5 h ([3]; mouse, brain and plasma, po, 25 mg/kg single dose P.O., 0.50 h, read-out: Brain to Plasma Ratio): 7.59 | Kp at 1 h ([3]; mouse, brain and plasma, po, 25 mg/kg single dose P.O., 1.00 h, read-out: Brain to Plasma Ratio): 5.25 | Kp at 3 h ([3]; mouse, brain and plasma, po, 25 mg/kg single dose P.O., 3.00 h, read-out: Brain to Plasma Ratio): 3.17 | Kp at 6 h ([3]; mouse, brain and plasma, po, 25 mg/kg single dose P.O., 6.00 h, read-out: Brain to Plasma Ratio): 2.19 | Cmax ([3]; mouse, Brain, oral 25 mg/kg): 40000 ng/g | MRT last ([3]; mouse, Brain, oral 25 mg/kg): 1.48 h | Tmax ([3]; mouse, Brain, oral 25 mg/kg): 0.5 h | half-life ([3]; mouse, Brain, oral 25 mg/kg): 1.32 h | AUC(0-inf) ([3]; mouse, Plasma, oral 25 mg/kg): 18200 ng·h/mL | AUC(0-t) ([3]; mouse, Plasma, oral 25 mg/kg): 15700 ng·h/mL | Cmax ([3]; mouse, Plasma, oral 25 mg/kg): 5490 ng/mL | MRT last ([3]; mouse, Plasma, oral 25 mg/kg): 1.96 h | Tmax ([3]; mouse, Plasma, oral 25 mg/kg): 1 h | half-life ([3]; mouse, Plasma, oral 25 mg/kg): 1.95 h | Autophagy proteins and phosphorylation of ULK1 and LC3 A/B (Western blot) (ULK1): increasing amounts of autophagy proteins over time as well as increased phosphorylation of ULK1 and LC3 A/B | logD (LogD octanol-water): 3.37 | IC50 [4]: 35.3 µM | IC50 (NHA): 26.5 µM | Drug levels in tumor vs plasma ([5]; 75 mg/kg oral): higher VMY-BC-1 drug levels in tumor than in plasma | AUCextrap ([5]; Plasma, oral 75 mg/kg): 0.34% | AUCextrap ([5]; Tumor, oral 75 mg/kg): 7.48% | AUCinf ([5]; Tumor, oral 75 mg/kg): 41005.56 ng·h/g | AUClast ([5]; Tumor, oral 75 mg/kg): 37936.36 ng·h/g | Kp ([5]; athymic nude, mouse, tumor and plasma, 75 mg/kg oral, read-out: Cmax in tumors relative to plasma): 3 | AUC(0-inf) [5, 10]: 32300 ng·h/mL | AUC(0-t) [5, 10]: 32200 ng·h/mL | Cmax [5, 10]: 4530 ng/mL | MRT last [5, 10]: 5.76 h | Tmax [5, 10]: 0.5 h | half-life [5, 10]: 3.15 h | Cmax [5, 11]: 13600 ng/g | MRT last [5, 11]: 1.94 h | Tmax [5, 11]: 1 h | half-life [5, 11]: 1.52 h | IC50 (CYP2D6): > 100 µM | Stability in simulated gastric fluid [6]: stable | Stability in simulated gastric fluid, pH 1.2 ([6]; pH 1.2): 87.81% remaining

Source: US20220213126A1, “SMALL MOLECULE AUTOPHAGY INDUCERS FOR THE TREATMENT OF CANCER AND NEURODEGENERATIVE DISEASES” (John Wayne Cancer Institute, priority 2019, published 2022)
